Our source for the IC50 values is patent US8987301B2, “Heteroarylaminoquinolines as TGF-beta receptor kinase inhibitors” (Merck Patent GmbH, priority 2009, dated 2015).

The target in this experiment is T1, TβR (GST-ALK5) (Homo sapiens, UniProt P36897).
T1 sequence (P36897 34-503): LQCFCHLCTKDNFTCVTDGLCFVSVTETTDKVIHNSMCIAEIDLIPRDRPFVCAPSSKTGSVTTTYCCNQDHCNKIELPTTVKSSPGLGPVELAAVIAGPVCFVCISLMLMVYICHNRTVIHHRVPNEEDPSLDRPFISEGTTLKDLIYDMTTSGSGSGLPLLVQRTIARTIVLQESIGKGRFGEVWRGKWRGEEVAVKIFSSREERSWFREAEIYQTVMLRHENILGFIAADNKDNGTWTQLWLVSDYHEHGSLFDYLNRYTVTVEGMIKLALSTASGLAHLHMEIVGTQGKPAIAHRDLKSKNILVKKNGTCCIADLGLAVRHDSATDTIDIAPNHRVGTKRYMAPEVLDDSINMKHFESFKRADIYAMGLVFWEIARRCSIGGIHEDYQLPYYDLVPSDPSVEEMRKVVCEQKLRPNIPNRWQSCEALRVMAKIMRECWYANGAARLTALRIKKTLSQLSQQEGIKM
Nature of the experiment: In-vitro (enzyme) flashplate kinase assay, TβR activity. The format is biochemical. To be noted: GST-ALK5, GST-SMAD2 substrate, 3 mM ATP. On the procedure:
In-Vitro (Enzyme) Assay for Determination of the Efficacy of Inhibitors of the Inhibition of TGF-Beta-Mediated Effects
The kinase assay was carried out as 384-well flashplate assay. […] The reaction was stopped using 25 μl of 200 mM EDTA solution, filtered with suction at room temperature after 30 min, and the wells were washed with 3 times 100 μl of 0.9% NaCl solution. Radioactivity was measured in the TopCount. The IC50 values were calculated using RS1. Above and below, all temperatures were indicated in ° C.

The term IC50 denotes the concentration needed to halve the response being measured. Read a low IC50 as greater potency.

`c1ccc(-c2cc(Nc3ccncc3)c3ccccc3n2)nc1` [compound 057]: the 50% inhibitory concentration (IC50) is less than 500 nM.

`CN1CCN(c2nccc(Nc3cc(-c4cc(Cl)ccc4F)nc4ccccc34)n2)CC1` [compound 015] showed an IC50 greater than 10000 nM.

The molecule `CN1CCN(C(=O)c2cnccc2Nc2cc(-c3cc(Cl)ccc3F)nc3ccccc23)CC1` [compound 126] registered an IC50 of 1000 to 10000 nM.

In turn, `Clc1ccc(Cl)c(-c2cc(Nc3ccncc3)c3ccccc3n2)c1` [compound 048] yielded an IC50 of less than 500 nM.

As to `O=c1[nH]c2cnccc2n1-c1cc(-c2cc(Cl)ccc2F)nc2ccccc12` [compound 023, N*4*-[2-(5-Chloro-2-fluoro-phenyl)-quinolin-4-yl]-pyridine-3,4-diamine urea], the IC50 was less than 500 nM.

`O=C(Nc1cnccc1Nc1cc(-c2cc(Cl)ccc2F)nc2ccccc12)C(F)(F)F` [compound 033] gave a half-maximal inhibitory concentration (IC50) of 1000 to 10000 nM.

`Fc1ccc(Cl)cc1-c1cc(Sc2ccncc2)c2ccccc2n1` [compound 011]: the 50% inhibitory concentration (IC50) fell in the range of 1000 to 10000 nM.

Take `FC(F)(F)c1ccccc1-c1cc(Nc2ccncc2)c2ccccc2n1` [compound 083]: the IC50 was greater than 10000 nM.

Regarding `CC(=O)OCC(=O)Nc1cnccc1Nc1cc(-c2cc(Cl)ccc2F)nc2ccccc12` [compound 085], the IC50 was less than 500 nM.

For the molecule `Fc1ccc(Cl)cc1-c1cc(Nc2ncnc3ccccc23)c2ccccc2n1` [compound 068], the IC50 is less than 500 nM.

`Fc1ccc(Cl)cc1-c1cc(Nc2ccnc(Cl)c2)c2ccccc2n1` [compound 021]: the IC50 lay in the range of 1000 to 10000 nM.

Consider `CC(C)(C)Sc1cnccc1Nc1cc(-c2cc(Cl)ccc2F)nc2ccccc12` [compound 094], for which the IC50 fell in the range of 500 to 1000 nM.

Molecule `CN1CCC(c2nc3cnccc3n2-c2cc(-c3cc(Cl)ccc3F)nc3ccccc23)CC1` [compound 028] registered an IC50 greater than 10000 nM.

On to `CN(C)c1cccc(-c2cc(Nc3cc(N)ncn3)c3ccccc3n2)c1` [compound 080], for which the IC50 was greater than 10000 nM.

`O=c1[nH]c2cnccc2n(-c2cc(-c3cc(Cl)ccc3F)nc3ccccc23)c1=O` [compound 082] returned an IC50 of 1000 to 10000 nM.

As to `Nc1cc(N(c2cc(-c3cc(Cl)ccc3F)nc3ccccc23)c2cc(-c3cc(Cl)ccc3F)nc3ccccc23)ncn1` [compound 037], the IC50 was 1000 to 10000 nM.

`COC(=O)c1cnccc1Nc1cc(-c2cc(Cl)ccc2F)nc2ccccc12` [compound 116] displayed an IC50 of less than 500 nM.

In turn, `Fc1ccc(Cl)cc1-c1cc(Nc2ccnc3cccnc23)c2ccccc2n1` [compound 024] came in with a concentration for half-maximal inhibition (IC50) of less than 500 nM.

Consider `COc1ccc(-c2cc(Nc3ccncc3)c3ccccc3n2)cc1` [compound 042], for which the IC50 fell in the range of 500 to 1000 nM.

The molecule `NCC(=O)Nc1cc(Nc2cc(-c3cc(Cl)ccc3F)nc3ccccc23)ccn1` [compound 115] showed an IC50 of 1000 to 10000 nM.

As for `CS(=O)(=O)Nc1cnccc1N(c1cc(-c2cc(Cl)ccc2F)nc2ccccc12)S(C)(=O)=O` [compound 040], the IC50 lay in the range of 1000 to 10000 nM.

In turn, `CN1CCN(c2cc(Nc3cc(-c4cc(Cl)ccc4F)nc4ccccc34)ccn2)CC1` [compound 100] gave an IC50 of 1000 to 10000 nM.

`CN(C)C(=O)Nc1cnccc1Nc1cc(-c2cc(Cl)ccc2F)nc2ccccc12` [compound 031] gave an IC50 of less than 500 nM.

Molecule `CC(C)(C)OC(=O)NCC(=O)Nc1cc(Nc2cc(-c3cc(Cl)ccc3F)nc3ccccc23)ccn1` [compound 114] yielded an IC50 of 1000 to 10000 nM.

`CN(c1ccncc1)c1cc(-c2cc(Cl)ccc2F)nc2ccccc12` [compound 007] registered an IC50 of 500 to 1000 nM.

`O=S(=O)(CC(F)(F)F)Nc1cnccc1Nc1cc(-c2cc(Cl)ccc2F)nc2ccccc12` [compound 030] showed an IC50 of 1000 to 10000 nM.

Consider `N#Cc1cncnc1Nc1cc(-c2cc(Cl)ccc2F)nc2ccccc12` [compound 122], for which the IC50 is less than 500 nM.

Turning to `Fc1ccc(Cl)cc1-c1cc(Nc2ccncc2C(F)(F)F)c2ccccc2n1` [compound 008], the IC50 is less than 500 nM.

`Clc1ccccc1-c1cc(Nc2ccncc2)c2ccccc2n1` [compound 050] came in with an IC50 of less than 500 nM.

In the case of `Fc1ccc(Cl)cc1-c1cc(Nc2cc(N3CCOCC3)ncn2)c2ccccc2n1` [compound 106], the IC50 was greater than 10000 nM.

For `FC(F)(F)c1cccc(-c2cc(Nc3ccncc3)c3ccccc3n2)c1` [compound 051], the IC50 is less than 500 nM.

In turn, `CN(C)CC(=O)Nc1cnccc1Nc1cc(-c2cc(Cl)ccc2F)nc2ccccc12` [compound 054] displayed an IC50 of less than 500 nM.

Take `Fc1ccc(Cl)cc1-c1cc(Nc2ccnc3[nH]ccc23)c2ccccc2n1` [compound 032]: the IC50 was greater than 10000 nM.

`CCC(=O)Nc1cc(Nc2cc(-c3cc(Cl)ccc3F)nc3ccccc23)ccn1` [compound 113] displayed an IC50 of less than 500 nM.

For `Fc1ccc(Cl)cc1-c1cc(Nc2ccnc3cc(C(F)(F)F)ccc23)c2ccccc2n1` [compound 069], the IC50 was less than 500 nM.

Consider `CNC(=O)c1cnccc1Nc1cc(-c2cc(Cl)ccc2F)nc2ccccc12` [compound 119], for which the IC50 is less than 500 nM.

Take `Fc1ccc(Cl)cc1-c1cc(Oc2cccnc2)c2ccccc2n1` [compound 063]: the 50% inhibitory concentration (IC50) was greater than 10000 nM.

Consider `Fc1ccc(Cl)cc1-c1cc(Nc2cccnc2)c2ccccc2n1` [compound 012], for which the IC50 is greater than 10000 nM.

In turn, `Fc1ccccc1-c1cc(Nc2ccncc2C(F)(F)F)c2ccccc2n1` [compound 046] gave an IC50 of less than 500 nM.

In turn, `O=C(Nc1cc(-c2cc(Cl)ccc2F)nc2ccccc12)c1cccnc1` [compound 010] had an IC50 of 1000 to 10000 nM.

For `Nc1ncnc(Nc2cc(-c3cc(C(F)(F)F)ccc3F)nc3ccccc23)n1` [compound 118], the IC50 is less than 500 nM.

In turn, `Fc1ccc(F)c(-c2cc(Nc3ccncc3)c3ccccc3n2)c1` [compound 043] gave an IC50 of less than 500 nM.

For `CN1CCC(C(=O)Nc2cnccc2Nc2cc(-c3cc(Cl)ccc3F)nc3ccccc23)CC1` [compound 027], the IC50 was less than 500 nM.

On to `CCN(CC)CCNS(=O)(=O)Nc1cnccc1Nc1cc(-c2cc(Cl)ccc2F)nc2ccccc12` [compound 076], for which the IC50 lay within 1000 to 10000 nM.

As for `CN1CCN(C(=O)Nc2cnccc2Nc2cc(-c3cc(Cl)ccc3F)nc3ccccc23)CC1` [compound 062], the IC50 lay in the range of 500 to 1000 nM.

`CCOc1cc(Nc2cc(-c3cc(Cl)ccc3F)nc3ccccc23)ccn1` [compound 101] had an IC50 greater than 10000 nM.

In turn, `Cc1cncc(-c2cc(Nc3ccncc3)c3ccccc3n2)c1` [compound 066] came in with an IC50 greater than 10000 nM.

Take `COCc1nc2cnccc2n1-c1cc(-c2cc(Cl)ccc2F)nc2ccccc12` [compound 089, 2-(5-Chloro-2-fluoro-phenyl)-4-(2-methoxymethyl-imidazo[4,5-c]pyridin-1-yl)-quinoline]: the IC50 is less than 500 nM.

Take `COc1ccccc1-c1cc(Nc2ccncc2)c2ccccc2n1` [compound 052]: the half-maximal inhibitory concentration (IC50) fell in the range of 1000 to 10000 nM.

The molecule `CN(C)CCCc1nc2cnccc2n1-c1cc(-c2cc(Cl)ccc2F)nc2ccccc12` [compound 091] returned an IC50 of 1000 to 10000 nM.

The molecule `O=C(CO)Nc1cnccc1Nc1cc(-c2cc(Cl)ccc2F)nc2ccccc12` [compound 109] showed an IC50 of 500 to 1000 nM.

The molecule `O=C(O)CCNc1cnccc1Nc1cc(-c2cc(Cl)ccc2F)nc2ccccc12` [compound 071] returned an IC50 greater than 10000 nM.

The molecule `CN(C)CCCNc1cc(Nc2cc(-c3cc(Cl)ccc3F)nc3ccccc23)cc(Cl)n1` [compound 102] registered an IC50 of 1000 to 10000 nM.

The molecule `CN(C)c1cccc(-c2cc(Nc3ccncn3)c3ccccc3n2)c1` [compound 081] registered an IC50 greater than 10000 nM.

On to `O=c1[nH]c2cnccc2n1-c1cc(-c2ccccc2F)nc2ccccc12` [compound 034], for which the half-inhibitory concentration (IC50) fell in the range of 500 to 1000 nM.

`Fc1ccc(Cl)cc1-c1cc(Nc2ccnnc2)c2ccccc2n1` [compound 020] yielded an IC50 of less than 500 nM.
